Reference: the NIST ThermoML archive (doi:10.1016/j.jct.2016.07.017)

Settings: for viscosity / mass density: 101.33 kPa; for viscosity / mass density / surface tension liquid-gas: Liquid; for viscosity: Falling or rolling sphere viscometry; for mass density: Vibrating tube method; for surface tension liquid-gas: Ring tensiometer

CC[N+](C)(CC)CCOC.O=S(=O)([N-]S(=O)(=O)C(F)(F)F)C(F)(F)F
Settings	mass density [kg/m3]	surface tension liquid-gas [mN/m]	viscosity [mPa·s]
288.15 K	1416.6	–	120.6
298.15 K	1407.33	33.6	70.96
308.15 K	1398.12	32.6	45.36
318.15 K	1389	32.1	30.96
328.15 K	1379.94	31.6	22.23
338.15 K	1370.78	31.3	16.58
348.15 K	1361.55	–	12.79
358.15 K	1352.39	–	10.18
368.15 K	1343.38	–	8.19

Settings	Glass transition temperature [°C]
Glass, DSC	-93.7
